Reference: patent publication US5164411A, “Pyrethroid compositions” (priority 1991, dated 1992)

What was measured:
Lepidoptera = assay: Foliar evaluation, average over Lepidoptera; type: in vivo; conditions: laboratory
Experimental: Cypermethrin and sigma-cypermethrin were tested by foliar application at various concentrations in aqueous solutions containing 9.75% acetone and 0.25% octylphenoxypolyethoxyethanol. Insect species utilized included the cabbage looper (Trichoplusia ni), southern armyworm (Spodoptera eridania), Mexican bean beetle (Epilachna varivestis), tobacco budworm (Heliothis virescens), and corn earworm (Heliothis zea).
For all insects, pinto beans (Phaseolus vulgaris) plants were treated with the test solutions. The test solutions were applied with a sprayer to the upper and lower surfaces of the plant leaves to runoff. The plants were then allowed to dry and were severed at the base of the stem before being placed in cups. Ten second instar individuals of the appropriate insect species, except the tobacco budworm and corn earworm, were placed in each cup and the cup covered. Tests with the tobacco budworm and corn earworm used four replicates with each replicate containing five second instar insects. In all tests, mortality was read 48 hours later. The sigma-cypermethrin used in the foliar evaluations was the product of Example 2.

[1] = system: mammals and certain species of fish; assay: Mammalian toxicology and fish toxicity, summary of the tests; type: in vivo, rat; fish; conditions: at rates giving commercial control of target crop insects
Experimental: In the 90-day feeding study, conducted in compliance with EPA guideline 82-1, the compound under test was administered continuously in the diet to groups of rats for at least ninety days at concentrations of 0, 150, and 1500 ppm to groups of fifteen Sprague-Dawley rats for cypermethrin and 0, 10, 50, 150, 250, 500, and 900 ppm to groups of ten Fisher 344 rats for sigma-cypermethrin. (The rates for sigma-cypermethrin were lower, because it was expected to be more toxic than cypermethrin.) The cypermethrin isomer content (weight %) of the sigma-cypermethrin technical product used in this study was total isomers--88.2%, S-isomers--82%, cis/trans ratio--53/47. Individual body weight and food consumption values were recorded weekly. At termination, hematology and clinical chemistry determinations were conducted and organ weights were obtained for adrenals, brain, heart, kidneys, liver, and ovaries or testes. […]
Multigeneration studies were conducted in compliance with EPA guideline 83-4 and provide information on reproductive parameters as well as neonatal morbidity and mortality for multiple generations. […] Body weights and food consumption were recorded at regular intervals. […]

For CC1(C)C(C=C(Cl)Cl)C1C(=O)O[C@H](C#N)c1cccc(Oc2ccccc2)c1 (mixture of isomers) [sigma-cypermethrin, (S)(cyano)(3-phenoxyphenyl)methyl cis/trans-3-(2,2-dichloroethenyl)-2,2-dimethylcyclopropanecarboxylate], the “average effectiveness relative to cypermethrin” value (Lepidoptera) was 1.9 times and the “toxicity relative to cypermethrin” value [1] was “significantly less toxic to mammals and certain species of fish”.
